Assay results as given in the NIST ThermoML archive (doi:10.1021/je9007662).
Numbers after ± are expanded uncertainties.

Assay: mean ionic activity coefficient (dimensionless); mn = molality of the nth substance listed, in mol/kg
Details: 298.15 K, 101 kPa, Liquid

[Br-].[Cs+] [cesium bromide] + O
mean ionic activity coefficient (m1 = 0.1): 0.75 ± 0.001
mean ionic activity coefficient (m1 = 0.2): 0.689 ± 0.001
mean ionic activity coefficient (m1 = 0.3): 0.652 ± 0.001
mean ionic activity coefficient (m1 = 0.4): 0.625 ± 0.001
mean ionic activity coefficient (m1 = 0.5): 0.604 ± 0.001
mean ionic activity coefficient (m1 = 0.6): 0.587 ± 0.001
mean ionic activity coefficient (m1 = 0.7): 0.573 ± 0.001
mean ionic activity coefficient (m1 = 0.8): 0.561 ± 0.001
mean ionic activity coefficient (m1 = 0.9): 0.551 ± 0.001
mean ionic activity coefficient (m1 = 1): 0.542 ± 0.001
mean ionic activity coefficient (m1 = 1.2): 0.526 ± 0.001
mean ionic activity coefficient (m1 = 1.4): 0.514 ± 0.001
mean ionic activity coefficient (m1 = 1.6): 0.504 ± 0.001
mean ionic activity coefficient (m1 = 1.8): 0.495 ± 0.001
mean ionic activity coefficient (m1 = 2): 0.488 ± 0.001
mean ionic activity coefficient (m1 = 2.5): 0.475 ± 0.001
mean ionic activity coefficient (m1 = 3): 0.466 ± 0.001
mean ionic activity coefficient (m1 = 3.5): 0.461 ± 0.001
mean ionic activity coefficient (m1 = 4): 0.46 ± 0.001
mean ionic activity coefficient (m1 = 4.5): 0.46 ± 0.001
mean ionic activity coefficient (m1 = 5): 0.463 ± 0.001
